Data from patent US12195452B2, “N-(4-(oxazol-5-yl)phenyl) chromane-3-carboxamide derivatives and related compounds as stimulators of the production of retinal precursor cells for the treatment of neuroretinal diseases” (ENDOGENA THERAPEUTICS, INC., priority 2018, dated 2025).

System: retinal precursor cells
Assay: Sphere passaging and high-throughput drug screening: proliferation of retinal precursor cells from the ciliary epithelium, cell number after one week
Assay type: cell-based, mammalian
Settings: for Cell proliferation within one week [%]: control experiment (absence of a compound) = 100, cells grown for one week; for increase of cell proliferation: within one week, over control
Method: Kynurenic Acid (0.2 mg/mL), trypsin (1.33 mg/mL), and hyaluronidase (0.67 mg/mL) were weighed out and dissolved in high magnesium/low calcium artificial cerebral spinal fluid (aCSF) at 37° C. Fibroblast growth factor 2 (FGF2; 10 ng/mL) and heparin (2 μg/mL) were added to 100 mL of serum-free media (SFM). Ovomucoid trypsin inhibitor (1 mg/mL) was dissolved in warm SFM and sterile filtered ([…]).
A dissecting microscope, cold light source, and sterile surgical instruments were set up inside of a sterile biological safety cabinet (BSC). Mammalian eyes were enucleated and placed in a petri dish containing cold, sterile aCSF. Under the dissecting microscope, hair, connective tissue, and the dorsal and ventral oblique muscles were cleared from the scleral/corneal border with two sets of forceps. Next, curved or angled micro-dissecting scissors were used to cleave any remaining extraocular muscle tissue, the optic nerve, and cut the eyeball into symmetrical halves; beginning and finishing the cut from the hole left by the optic nerve. Using two sets of forceps to grasp the cornea, the two eye halves were peeled apart. The lens, optic nerve, and vitreous were separated from the eye shells and the eye shells were transferred into a new petri dish (also containing cold, sterile aCSF). To isolate the ciliary epithelium (CE), eye shells were oriented with the cornea on the right and retinal pigmented epithelium (RPE) on the left. A pair of straight forceps were used to pin down the eye shell on the RPE side while a scalpel blade was inserted between the CE and the iris, using pressure to slice the iris/cornea side off from the rest of the shell. Next, the scalpel was run along the border between the CE and the RPE to obtain the CE isolated as a thin strip of tissue. The CE strips were then transferred to a 35 mm dish containing 2 mL of dispase solution (Sigma; T1005) and incubated for 10 minutes at 37° C. Next, the strips were transferred from dispase into a 35 mm dish containing 2 mL of sterile filtered kynurenic acid, trypsin and hyaluronidase solution and incubated at 37° C. for 10 minutes. After incubation, the dish was returned to the dissecting scope, and the CE strips were pinned down with straight, non-serrated forceps, while non-serrated curved forceps were used to scrape the CE off from the underlying sclera. The bare scleral strips were then discarded, such that only the CE cells remained in the enzyme solution. Using a fire-polished, cotton-plugged glass pipette, the cells and enzyme solution were transferred to a 15 mL tube and triturated approximately 45 times to break apart the tissue. The 15 mL tube/cell suspension was centrifuged for 5 minutes at 1500 rpm. The supernatant was gently aspirated from the resulting pellet using a fire-polished, cotton-plugged glass pipette and 2 mL of trypsin inhibitor solution was added to the pellet. Using a small borehole, fire-polished, cotton-plugged glass pipette, the sample was triturated approximately 45 times until it was a single-cell suspension. The 15 mL tube/cell suspension was centrifuged for 5 minutes at 1500 rpm. The supernatant was gently aspirated from the resulting pellet and 1-2 mL of SFM with FGF2 and heparin (plating media) was added. The cells and media were mixed to ensure a uniform cell suspension and a 10 uL sample was taken and cell density was determined. The cells were then seeded and cultured at 10c/μL in culture-treated plates or flasks. After one week, roughly 1 in 500 cells proliferated to form free-floating, clonal spheres greater than 80 μm in diameter.
Human-derived spheres were passaged using the kynurenic acid, trypsin, hyaluronidase enzyme solution with the addition of collagenase I (0.5 mg/mL), collagenase II (0.5 mg/mL) and elastase (0.1 mg/mL). Mouse-derived spheres were passaged using hyaluronidase (0.67 mg/mL), collagenase I (0.5 mg/mL), and collagenase II (0.5 mg/mL) dissolved in Accustase solution (Sigma; SCR005). […]

Molecule	Cell proliferation within one week [%]	increase of cell proliferation
O=C(Nc1ccc(-c2cnco2)c(Cl)c1)C1CCOc2ccccc21 (racemic) [Compound 2, N-(3-chloro-4-(oxazol-5-yl)phenyl) chromane-4-carboxamide]	128%	
O=C(Nc1ccc(-c2cnco2)c(Cl)c1)C1COc2ccc(Cl)cc2C1 (racemic) [Compound 38, 6-chloro-N-(3-chloro-4-(oxazol-5-yl)phenyl)chromane-3-carboxamide]	122%	58%
O=C(Nc1ccc(-c2cnco2)c(F)c1)C1CCOc2ccccc21 (racemic) [Compound 4, N-(3-fluoro-4-(oxazol-5-yl)phenyl)chromane-4-carboxamide]	106%	
COc1cccc2c1CC(C(=O)Nc1ccc(-c3cnco3)c(Cl)c1)CO2 (racemic) [Compound 40, N-(3-chloro-4-(oxazol-5-yl)phenyl)-5-methoxychromane-3-carboxamide]	107%	
COc1ccc2c(c1)CC(C(=O)Nc1ccc(-c3ccncc3)c(OC)c1)CO2 (racemic) [Compound 16, 6-methoxy-N-(3-methoxy-4-(pyridin-4-yl)phenyl)chromane-3-carboxamide]	143%	43%
O=C(Nc1ccc(-c2cnco2)c(Cl)c1)C1CCc2ccccc21 (racemic) [Compound 33, N-(3-chloro-4-(oxazol-5-yl)phenyl)-2,3-dihydro-1H-indene-1-carboxamide]	116%	
COc1ccc2c(c1)OC(C(=O)Nc1ccc(-c3ccncc3)c(OC)c1)CO2 (racemic) [Compound 18, 7-methoxy-N-(3-methoxy-4-(pyridin-4-yl)phenyl)-2,3-dihydrobenzo[b][1,4]dioxine-2-carboxamide]	104%	
O=C(Nc1ccc(-c2nnco2)c(F)c1)C1COc2ccccc2C1 (racemic) [Compound 29, N-(3-fluoro-4-(1,3,4-oxadiazol-2-yl)phenyl)chromane-3-carboxamide]	108%	
O=C(CC1Cc2ccccc2O1)Nc1ccc(-c2cnco2)c(Cl)c1 (racemic) [Compound 34, N-(3-chloro-4-(oxazol-5-yl)phenyl)-2-(2,3-dihydrobenzofuran-2-yl)acetamide]	129%	
COc1ccc2c(c1)OC(C(=O)Nc1ccc(-c3cnco3)c(Cl)c1)CO2 (racemic) [Compound 8, N-(3-chloro-4-(oxazol-5-yl)phenyl)-7-methoxy-2,3-dihydrobenzo[b][1,4]dioxine-2-carboxamide]	117%	
O=C(Nc1ccc(-c2cnco2)c(F)c1)C1COc2ccccc2O1 (racemic) [Compound 9, N-(3-fluoro-4-(oxazol-5-yl)phenyl)-2,3-dihydrobenzo[b][1,4]dioxine-2-carboxamide]	118%	
COc1ccc2c(c1)CC(C(=O)Nc1ccc(-c3cnco3)c(OC)c1)CO2 (racemic) [Compound 14, 6-methoxy-N-(3-methoxy-4-(oxazol-5-yl)phenyl)chromane-3-carboxamide]	196%	96%
Cc1ncc(-c2ccc(NC(=O)C3COc4ccccc4C3)cc2Cl)o1 (racemic) [Compound 30, N-(3-chloro-4-(2-methyloxazol-5-yl)phenyl)chromane-3-carboxamide]	119%	
N-(2-(difluoromethoxy)-4-(oxazol-5-yl)phenyl)chroman-3-carboxamide [Compound 27]	106%	
O=C(Nc1ccc(-n2cncn2)c(C(F)(F)F)c1)C1COc2ccccc2C1 (racemic) [Compound 28, N-(4-(1H-1,2,4-triazol-1-yl)-3-(trifluoromethyl)phenyl)chromane-3-carboxamide]	118%	
O=C(Nc1ccc(-c2cnco2)c(Cl)c1)C1COc2ccccc2C1 (racemic) [Compound 1, N-(3-chloro-4-(1,3-oxazol-5-yl)phenyl) chromane-3-carboxamide]	179%	79%
COc1cc(NC(=O)C2COc3ccccc3O2)ccc1-c1cnco1 (racemic) [Compound 13, N-(3-methoxy-4-(oxazol-5-yl)phenyl)-2,3-dihydrobenzo[b][1,4]dioxine-2-carboxamide]	137%	
COc1cc(NC(=O)C2CCOc3ccccc32)ccc1-c1cnco1 (racemic) [Compound 11, N-(3-methoxy-4-(oxazol-5-yl)phenyl) chromane-4-carboxamide]	140%	40%
O=C(Nc1ccc(-c2cnco2)cc1OC(F)F)C1COc2ccccc2C1 (racemic) [Compound 24, N-(2-(difluoromethoxy)-4-(oxazol-5-yl)phenyl)chroman-3-carboxamide]	126%	
O=C(Nc1ccc(-c2cnco2)c(Cl)c1)C1COc2cc(F)ccc2C1 (racemic) [Compound 37, N-(3-chloro-4-(oxazol-5-yl)phenyl)-7-fluorochromane-3-carboxamide]	158%	
O=C(Nc1ccc(-c2cnco2)c(Cl)c1)C1CCOc2ccccc21 (racemic) [Compound 32, N-(3-chloro-4-(oxazol-5-yl)phenyl)chromane-4-carboxamide]	113%	
Cc1cc(NC(=O)C2COc3ccccc3C2)ccc1-c1cnco1 (racemic) [Compound 22, N-(3-methyl-4-(oxazol-5-yl)phenyl) chromane-3-carboxamide]	120%	
COc1ccc2c(c1)OC(C(=O)Nc1ccc(-c3cnco3)c(F)c1)CO2 (racemic) [Compound 7, N-(3-fluoro-4-(oxazol-5-yl)phenyl)-7-methoxy-2,3-dihydrobenzo[b][1,4]dioxine-2-carboxamide]	123%	
COc1cc(NC(=O)C2COc3ccccc3C2)ccc1-c1cnco1 (racemic) [Compound 12, N-(3-methoxy-4-(oxazol-5-yl)phenyl) chromane-3-carboxamide]	230%	130%
O=C(Nc1ccc(-c2cnco2)c(Cl)c1)C1COc2ccccc2C1 (single isomer, unassigned; (-)) [Compound 21, (−)-N-(3-chloro-4-(1,3-oxazol-5-yl)phenyl)chromane-3-carboxamide]	126%	
COc1cc(NC(=O)C2COc3ccccc3C2)ccc1-c1ccncc1 (racemic) [Compound 17, N-(3-methoxy-4-(pyridin-4-yl)phenyl)chromane-3-carboxamide]	114%	
COc1cc(NC(=O)C2CCOc3ccccc32)ccc1-c1ccncc1 (racemic) [Compound 15, N-(3-methoxy-4-(pyridin-4-yl)phenyl)chromane-4-carboxamide]	122%	
O=C(Nc1ccc(-c2cnco2)c(F)c1)C1COc2ccccc2C1 (racemic) [Compound 5, N-(3-fluoro-4-(oxazol-5-yl)phenyl)chromane-3-carboxamide]	133%	
N-(2-(difluoromethoxy)-4-(oxazol-5-yl)phenyl)chroman-3-carboxamide [Compound 26]	138%	
